Key:
Assay in all cases: clonogenic assay (colony forming assay)
Assay type in all cases: cell-based, human
LXFS 650 = settings: LXFS 650/9; X199AM
Method: (§1) Solid human tumor xenografts growing subcutaneously in serial passages in thymus-aplastic nude mice (NMRI nu/nu strain, obtained from our own breeding facility) were removed under sterile conditions, the cells were mechanically disaggregated and subsequently incubated with an enzyme cocktail consisting of collagenase (1.2-1.8 U/ml, Worthington), DNAse (375 U/ml, Boehringer Mannheim) und hyaluronidase (29 U/ml, Boehringer Mannheim) in RPMI 1640 at 37° C. for 30 minutes. The cell mixture was passed through sieves of 200 μm and 50 μm mesh size and washed thereafter twice with PBS. The percentage of viable cells was determined in a Neubauer counting chamber using trypan blue exclusion.
(§2) The clonogenic assay was performed according to a modified two-layer soft agar assay described by Hamburger and Salmon (Hamburger and Salmon, Science, 197: 461463, 1977). The bottom layer consisted of 0.2 ml Iscoves' Modified Dulbecco's Medium with 20% fetal calf serum and 0.75% agar. 8×10^3 to 1,6×10^4 cells were added to 0.2 ml of the same culture medium together with 0.4% agar and placed in already coated 24-multiwell dishes. Test substances were applied by continuous exposure (drug overlay) in 0.2 ml medium. Every dish included six control wells containing the vehicle- and drug-treated groups in triplicate at six concentrations.
(§3) Cultures were incubated at 37° and 7% CO2 in a humidified atmosphere for 5 to 15 days (depending on the doubling time of the tumor stem cells) and monitored for colony growth using an inverted microscope. Within this period, in vitro tumor growth led to the formation of colonies with a diameter of ≧50 μm. At the time of maximum colony formation counts were performed with an automatic image analysis system (OMNICOM Fas IV, Biosys GmbH). 24 hours prior to this assay, vital colonies were stained with a sterile aqueous solution of 2-(4-iodophenyl)-3-(4-nitrophenyl)-5-phenyltetrazolium chloride (1 mg/ml, 100 μI/well). Drug effects were expressed in terms of the percentage of surviving cells, obtained by comparison of the mean number of colonies in the treated plates with the mean colony count of the untreated controls (test-versus-control-group value, T/C=colony countTreated Group*100/colony countControl Group).
(§4) Coefficient of variation in the control group ≦50%. IC50 and IC70 values were determined by plotting compound concentration versus cell survival rate. Mean IC50 and IC70 values were calculated according to the formula: [formula]
(§5) with x=specific tumor xenograft and n=total number of tumor xenografts studied. If an IC50 or IC70 value could not be determined within the examined dose range, the lowest or highest concentration studied was used for the calculation.

PRXF PC3M = settings: PRXF PC3M/3; X189/AM
Method: as §1, §2, §3, §4, §5

LXFL 529 = settings: LXFL 529/18, X182AM
Method: as §1, §2, §3, §4, §5

OVXF 899 = settings: OVXF 899/33; X185AM
Method: as §1, §2, §3, §4, §5

PRXF DU145X = settings: PRXF DU145X/15, X229AM
Method: as §1, §2, §3, §4, §5

RXF 423 = settings: RXF 423/16; X183AM
Method: as §1, §2, §3, §4, §5

MAXF MCF7X = settings: MAXF MCF7X/28; X218AM
Method: as §1, §2, §3, §4, §5

RXF 393 = settings: RXF 393/9; X194AM
Method: as §1, §2, §3, §4, §5

## O=[Se]([O-])[O-].[Na+].[Na+] [sodium selenite]
LXFS 650
  Test/control (%) at drug concentration [μM] 1.: 84%
  Test/control (%) at drug concentration [μM] 10.: 109%
  Test/control (%) at drug concentration [μM] 100.: 16%
  Test/control (%) at drug concentration [μM] .001: 100%
  Test/control (%) at drug concentration [μM] .01: 100%
  Test/control (%) at drug concentration [μM] .1: 98%
  Test/control (%) class at drug concentration [μM] 1.: − (− (T/C ≧ 50%))
  Test/control (%) class at drug concentration [μM] 10.: − (− (T/C ≧ 50%))
  Test/control (%) class at drug concentration [μM] 100.: ++ (++ (10% < T/C < 30%))
  Test/control (%) class at drug concentration [μM] .001: − (− (T/C ≧ 50%))
  Test/control (%) class at drug concentration [μM] .01: − (− (T/C ≧ 50%))
  Test/control (%) class at drug concentration [μM] .1: − (− (T/C ≧ 50%))
PRXF PC3M
  Test/control (%) at drug concentration [μM] 1.: 85%
  Test/control (%) at drug concentration [μM] 10.: 38%
  Test/control (%) at drug concentration [μM] 100.: 1%
  Test/control (%) at drug concentration [μM] .001: 91%
  Test/control (%) at drug concentration [μM] .01: 91%
  Test/control (%) at drug concentration [μM] .1: 89%
  Test/control (%) class at drug concentration [μM] 1.: − (− (T/C ≧ 50%))
  Test/control (%) class at drug concentration [μM] 10.: + (+ (30% ≦ T/C < 50%))
  Test/control (%) class at drug concentration [μM] 100.: +++ (+++ (T/C ≦ 10%))
  Test/control (%) class at drug concentration [μM] .001: − (− (T/C ≧ 50%))
  Test/control (%) class at drug concentration [μM] .01: − (− (T/C ≧ 50%))
  Test/control (%) class at drug concentration [μM] .1: − (− (T/C ≧ 50%))
LXFL 529
  Test/control (%) at drug concentration [μM] 1.: 61%
  Test/control (%) at drug concentration [μM] 10.: 9%
  Test/control (%) at drug concentration [μM] 100.: 0%
  Test/control (%) at drug concentration [μM] .001: 90%
  Test/control (%) at drug concentration [μM] .01: 78%
  Test/control (%) at drug concentration [μM] .1: 72%
  Test/control (%) class at drug concentration [μM] 1.: − (− (T/C ≧ 50%))
  Test/control (%) class at drug concentration [μM] 10.: +++ (+++ (T/C ≦ 10%))
  Test/control (%) class at drug concentration [μM] 100.: +++ (+++ (T/C ≦ 10%))
  Test/control (%) class at drug concentration [μM] .001: − (− (T/C ≧ 50%))
  Test/control (%) class at drug concentration [μM] .01: − (− (T/C ≧ 50%))
  Test/control (%) class at drug concentration [μM] .1: − (− (T/C ≧ 50%))
LXFL 529; listed as selenium
  Test/control (%) at drug concentration [μM] 10.: < 30%
OVXF 899
  Test/control (%) at drug concentration [μM] 1.: 70%
  Test/control (%) at drug concentration [μM] 10.: 73%
  Test/control (%) at drug concentration [μM] 100.: 1%
  Test/control (%) at drug concentration [μM] .001: 80%
  Test/control (%) at drug concentration [μM] .01: 79%
  Test/control (%) at drug concentration [μM] .1: 66%
  Test/control (%) class at drug concentration [μM] 1.: − (− (T/C ≧ 50%))
  Test/control (%) class at drug concentration [μM] 10.: − (− (T/C ≧ 50%))
  Test/control (%) class at drug concentration [μM] 100.: +++ (+++ (T/C ≦ 10%))
  Test/control (%) class at drug concentration [μM] .001: − (− (T/C ≧ 50%))
  Test/control (%) class at drug concentration [μM] .01: − (− (T/C ≧ 50%))
  Test/control (%) class at drug concentration [μM] .1: − (− (T/C ≧ 50%))
PRXF DU145X
  Test/control (%) at drug concentration [μM] 1.: 91%
  Test/control (%) at drug concentration [μM] 10.: 5%
  Test/control (%) at drug concentration [μM] 100.: 0%
  Test/control (%) at drug concentration [μM] .001: 97%
  Test/control (%) at drug concentration [μM] .01: 96%
  Test/control (%) at drug concentration [μM] .1: 92%
  Test/control (%) class at drug concentration [μM] 1.: − (− (T/C ≧ 50%))
  Test/control (%) class at drug concentration [μM] 10.: +++ (+++ (T/C ≦ 10%))
  Test/control (%) class at drug concentration [μM] 100.: +++ (+++ (T/C ≦ 10%))
  Test/control (%) class at drug concentration [μM] .001: − (− (T/C ≧ 50%))
  Test/control (%) class at drug concentration [μM] .01: − (− (T/C ≧ 50%))
  Test/control (%) class at drug concentration [μM] .1: − (− (T/C ≧ 50%))
PRXF DU145X; listed as selenium
  Test/control (%) at drug concentration [μM] 10.: < 30%
RXF 423
  Test/control (%) at drug concentration [μM] 1.: 92%
  Test/control (%) at drug concentration [μM] 10.: 110%
  Test/control (%) at drug concentration [μM] 100.: 0%
  Test/control (%) at drug concentration [μM] .001: 99%
  Test/control (%) at drug concentration [μM] .01: 111%
  Test/control (%) at drug concentration [μM] .1: 120%
  Test/control (%) class at drug concentration [μM] 1.: − (− (T/C ≧ 50%))
  Test/control (%) class at drug concentration [μM] 10.: − (− (T/C ≧ 50%))
  Test/control (%) class at drug concentration [μM] 100.: +++ (+++ (T/C ≦ 10%))
  Test/control (%) class at drug concentration [μM] .001: − (− (T/C ≧ 50%))
  Test/control (%) class at drug concentration [μM] .01: − (− (T/C ≧ 50%))
  Test/control (%) class at drug concentration [μM] .1: − (− (T/C ≧ 50%))
MAXF MCF7X
  Test/control (%) at drug concentration [μM] 1.: 78%
  Test/control (%) at drug concentration [μM] 10.: 97%
  Test/control (%) at drug concentration [μM] 100.: 0%
  Test/control (%) at drug concentration [μM] .001: 93%
  Test/control (%) at drug concentration [μM] .01: 85%
  Test/control (%) at drug concentration [μM] .1: 90%
  Test/control (%) class at drug concentration [μM] 1.: − (− (T/C ≧ 50%))
  Test/control (%) class at drug concentration [μM] 10.: − (− (T/C ≧ 50%))
  Test/control (%) class at drug concentration [μM] 100.: +++ (+++ (T/C ≦ 10%))
  Test/control (%) class at drug concentration [μM] .001: − (− (T/C ≧ 50%))
  Test/control (%) class at drug concentration [μM] .01: − (− (T/C ≧ 50%))
  Test/control (%) class at drug concentration [μM] .1: − (− (T/C ≧ 50%))
RXF 393
  Test/control (%) at drug concentration [μM] 1.: 31%
  Test/control (%) at drug concentration [μM] 10.: 32%
  Test/control (%) at drug concentration [μM] 100.: 10%
  Test/control (%) at drug concentration [μM] .001: 62%
  Test/control (%) at drug concentration [μM] .01: 45%
  Test/control (%) at drug concentration [μM] .1: 31%
  Test/control (%) class at drug concentration [μM] 1.: + (+ (30% ≦ T/C < 50%))
  Test/control (%) class at drug concentration [μM] 10.: + (+ (30% ≦ T/C < 50%))
  Test/control (%) class at drug concentration [μM] 100.: +++ (+++ (T/C ≦ 10%))
  Test/control (%) class at drug concentration [μM] .001: − (− (T/C ≧ 50%))
  Test/control (%) class at drug concentration [μM] .01: − (− (T/C ≧ 50%))
  Test/control (%) class at drug concentration [μM] .1: + (+ (30% ≦ T/C < 50%))

From patent US6656509B1, “Combination of selenium-containing compounds with cytostatics” (Biosyn Arzneimittel GmbH, priority 1998, dated 2003)
